Measured values reported in ChEMBL document CHEMBL1132604, “Hypoxia-selective nitrobenzyloxycarbonyl derivatives of 1,2-bis(methylsulfonyl)-1-(2-chloroethyl)hydrazines” (1999).

Tests used:
Format in all cases: functional
Mus musculus [1] = assay: Surviving fraction of compound on BALB/c mice bearing well established intradermal EMT6 solid tumors was measured by intraperitoneal injection on treatment with drug and X-ray.
Mus musculus [2] = assay: Surviving fraction of compound on BALB/c mice bearing well established intradermal EMT6 solid tumors was measured by intraperitoneal injection without any treatment.
Mus musculus [3] = assay: Surviving fraction of compound on BALB/c mice bearing well established intradermal EMT6 solid tumors was measured by intraperitoneal injection on treatment with X-ray.
Mus musculus [4] = assay: Surviving fraction of compound on BALB/c mice bearing well established intradermal EMT6 solid tumors was measured by intraperitoneal injection on treatment with drug.
Mus musculus [5] = assay: Surviving fraction of compound on BALB/c mice bearing well established intradermal EMT6 solid tumors was measured by intraperitoneal injection on treatment with drug alone.
Mus musculus [6] = assay: Surviving fraction of compound on BALB/c mice bearing well established intradermal EMT6 solid tumors was measured by intraperitoneal injection on treatment with X-ray alone.

Compound | Surviving fraction (Mus musculus [1]) | Surviving fraction (Mus musculus [2]) | Surviving fraction (Mus musculus [3]) | Surviving fraction (Mus musculus [4]) | Surviving fraction (Mus musculus [5]) | Surviving fraction (Mus musculus [6])
CS(=O)(=O)N(CCCl)N(C(=O)OCc1ccc([N+](=O)[O-])cc1)S(C)(=O)=O | 0.013 | 1 | 0.043 | 0.841 | – | –
COc1cc(COC(=O)N(N(CCCl)S(C)(=O)=O)S(C)(=O)=O)c([N+](=O)[O-])cc1OC | 0.024 | 1 | – | – | 0.856 | 0.043
